Assay results: patent US12318365B2, “Inhibition of dipeptide repeat proteins” (ALS Therapy Development Institute, priority 2019, dated 2025)
“Also recorded” adds a separate entry of the source. No end group written: not given here.

System: NSC-34 motor-neuron-like cells
Test: WST-1 assay (dysmetabolism) in NSC-34 cells
Assay type: cell-based, Mouse
Conditions: for reduction of metabolic activity in NSC-34 compared to CHO: DRP 30 and 3 μM, 48 h
Description: WST-1 Assay: The WST-1 assay is a colorimetric assay that measures cell metabolism. Cells with a healthy metabolism contain mitochondrial dehydrogenase enzymes that remove hydrogen atoms from certain molecules, resulting in a release of energy that the cell can use to perform critical reactions. In the WST-1 assay, a water soluble tetrazolium salt substrate (known as WST-1) is applied, which readily enters cells and their mitochondria upon application. If cells are viable, their mitochondrial dehydrogenase enzymes will catalyze the reaction to convert this WST-1 substrate to a colored product called Formazan. The production of this colored Formazan product by viable cells can be quantified using a spectrophotometer (plate reader). Higher absorbance readings correspond to greater metabolic activity/cell viability.
NSC-34 Cell Culture: NSC-34 cells (Cedarlane Laboratories, Burlington, ON, CA) were cultured in a complete medium consisting of High Glucose Dulbecco's Modified Eagle Medium (Millipore-Sigma, Burlington, MA, USA) supplemented with 10% US-origin fetal bovine serum (Thermo-Fisher Scientific, Cambridge, MA, USA), 1% 200 mM L-Glutamine solution (Thermo-Fisher Scientific, Cambridge, MA, USA), and 1% 10,000 U/mL Penicillin-Streptomycin solution (Thermo-Fisher Scientific, Cambridge, MA, USA). Prior to preparation of NSC-34 complete medium, L-Glutamine and Penicillin-Streptomycin solutions were aliquoted and stored at −20° C., and DMEM/High Glucose was stored at 4°. […] Prepared complete medium, DPBS, and Trypsin were always heated in a 37° C. water bath before use, and stored at 4° C. between uses. Cell counts for plating were performed using a Hausser Scientific cell counting chamber (Thermo-Fisher Scientific, Cambridge, MA, USA).
Proteins were reconstituted in sterile DMSO (Millipore-Sigma, Burlington, MA, USA) to stock concentrations of 10 mM, and stored at 4° C.
After reconstitution using the solvents specified in Table _, stocks were aliquoted to 15-20 μL and immediately stored at −20° C.
One row on the top and bottom of the plate, and two columns on either side of the plate, were left without cells and contained culture medium only to minimize experimental well volume evaporation. After plating, cells were incubated for 24 h at 37° C., 5% CO2 prior to DRP and/or PRMT inhibitor addition. At time of DRP/PRMT inhibitor addition, desired doses of DRP for challenge and inhibitor for treatment were achieved by diluting aliquots of each stock in warm culture medium. During experiments where both PRMT inhibitors and DRPs were used, PRMT inhibitors were always applied to wells first, and followed by DRP application. […] Inhibitor toxicity controls were included as wells treated with the desired doses of drug for the experiment, but no DRP. DRP toxicity controls were included as wells only treated with the doses of DRP used for challenge. […] Additional controls needed for each endpoint are specified in the “WST-1 Assay” and “LDH Assay” sections of these methods.
WST-1 Assay: Cells were plated and prepared using the steps described in the “Plating NSC-34 and Dosing with DRPs and PRMT Inhibitors” section of these methods. Other controls for this experiment included wells containing only cells in culture medium, and culture medium only. At time of testing, culture medium was removed from wells and replaced with a warmed, sterile-filtered solution consisting of DPBS with calcium and magnesium, and 4.5 g/L D-glucose (Millipore-Sigma, Burlington, MA, USA). To wells containing 200 μL DPBS-glucose solution, 20 μL/well WST-1 reagent (Millipore-Sigma, Burlington, MA) was applied and plates were then incubated at 37° C., 5% CO2 for 1 h before plates were read at 450 nm on a SpectraMax M3 Microplate Reader (Molecular Devices, San Jose, CA, USA). Experiments included three replicates per condition.

Compound	abrogation of ADMe-GR15-induced dysmetabolism (3 μM ADMe-GR15 challenge, 24 h, MS023 0.1-10 μM, three repeats)	lowest dose with significant partial abrogation of dysmetabolism in GR-treated cells (3 μM GR15, 24 h, MS023 0.01-3 μM) [µM]	dose dependence of abrogation of GR15-induced dysmetabolism (3 μM GR15 challenge, 24 h, dose range of the example)	abrogation of GR-induced dysmetabolism (3 μM GR15 challenge, 24 h, inhibitor dose 3 μM)	abrogation of GR15-induced dysmetabolism (3 μM GR15 challenge, 24 h, inhibitor doses 1 and 3 μM)	relative potency against GR- vs PR-induced dysmetabolism (3 μM GR15 or PR15, 24 h, MS023 0.01-3 μM)	lowest dose with significant partial abrogation of dysmetabolism in PR-treated cells (3 μM PR15, 24 h, MS023 0.01-3 μM) [µM]	dose dependence of abrogation of PR15-induced dysmetabolism (3 μM PR15 challenge, 24 h, dose range of the example)	abrogation of PR15-induced dysmetabolism (3 μM PR15 challenge, 24 h, inhibitor doses 1 and 3 μM)	dysmetabolism independently of DRP challenge (no DRP, over all doses tested)	dysmetabolism induced by DRP challenge (DRP 10 nM-3 μM, 24 h)	reduction of metabolic activity in NSC-34 compared to CHO
CC(C)Oc1ccc(-c2c[nH]cc2CN(C)CCN)cc1 [MS023]	did not abrogate	0.1	in a dose-dependent manner; also recorded: consistently dose-dependently abrogated	abrogated GR-induced dysmetabolism	completely abrogated	more potently abrogated GR-induced dysmetabolism	0.3	in a dose-dependent manner; also recorded: dose-dependently abrogated	completely abrogated	No doses of MS023 tested induced dysmetabolism; also recorded: No doses of MS023 tested produced dysmetabolism	–	–
GRGRGRGRGRGRGRGRGRGRGRGRGRGRGR [GR15]	–	–	–	–	–	–	–	–	–	–	induced dose-dependent dysmetabolism	significantly greater reduction of metabolic activity in NSC-34
PRPRPRPRPRPRPRPRPRPRPRPRPRPRPR [PR15]	–	–	–	–	–	–	–	–	–	–	–	significantly greater reduction of metabolic activity in NSC-34
